# In the PolyMetriX glass transition set:
# ± gives the standard deviation of the reports.
row,Compound,glass transition temperature
1,*c1ccc(Oc2ccc(C(=O)c3cccc(C(=O)c4ccc(Oc5ccc(N6C(=O)c7ccc(Oc8ccc(Sc9ccc(Oc%10ccc%11c(c%10)C(=O)N(*)C%11=O)cc9)cc8)cc7C6=O)cc5)cc4)c3)cc2)cc1 (repeat unit),192.00 °C
2,*CC(*)(C)C(=O)OCCC(C)CC(C)(C)C (repeat unit),1.00 °C
3,*CC(*)(CC(=O)OC(C)C)C(=O)OC12CC3CC(CC(C3)C1)C2 (repeat unit),180.00 °C
4,*CC(*)C(=O)OCCc1ccccc1 (repeat unit),-3.00 °C
5,*c1cccc(P(=O)(c2ccccc2)c2cccc(-n3c(=O)c4c(-c5cc(C(F)(F)F)cc(C(F)(F)F)c5)c5c(=O)n(*)c(=O)c5c(-c5cc(C(F)(F)F)cc(C(F)(F)F)c5)c4c3=O)c2)c1 (repeat unit),324.00 °C
6,*O[Si](*)(C)c1ccccc1 (repeat unit),-28 °C
7,*c1ccc([Si](C)(C)[Si](*)(C)C)s1 (repeat unit),15.00 °C
8,*c1cc(C(=O)OCC(F)(F)C(F)(F)C(F)(F)F)c(*)s1 (repeat unit),129.00 °C
9,*CC1CCC(COC(=O)c2cccc(C(=O)O*)c2)CC1 (repeat unit),70.00 °C
10,*C#Cc1cc(C(C)(C)C)cc2c3cc(C(C)(C)C)cc(*)c3n(CCCCCCCCCCCCCCCC)c12 (repeat unit),80.00 °C
11,*Nc1ccc(*)cc1OC (repeat unit),90.00 °C
12,*CCCCCCCCCCCCNC(=O)CCCCCCCCCCCCCCCCC(=O)N* (repeat unit),46.50 °C
13,*Cc1ccccc1CN(CC)c1ccc(/C=C/c2ccc(/C=C(\C#N)C(=O)NC3CCCCC3NC(=O)/C(C#N)=C/c3ccc(/C=C/c4ccc(N(*)CC)cc4)cc3)cc2)cc1 (repeat unit),201.00 °C
14,*C(=O)Nc1cccc(C(=O)c2cccc(NC(=O)c3ccc4c(c3)C(=O)N(c3ccc(-c5sc(-c6ccc(N7C(=O)c8ccc(*)cc8C7=O)cc6)c(-c6ccccc6)c5-c5ccccc5)cc3)C4=O)c2)c1 (repeat unit),308.00 °C
15,*Oc1ccc(C(*)=O)cc1 (repeat unit) [Poly(p-hydroxybenzoate)],147 ± 8.5 °C
16,*c1ccc(Oc2ccc(NC(=O)c3ccc4c(c3)C(=O)N(c3ccc(Cc5ccc(N6C(=O)c7ccc(C(=O)Nc8ccc(Oc9ccc(C%10(*)NC(=O)c%11ccccc%11%10)cc9)cc8)cc7C6=O)cc5)cc3)C4=O)cc2)cc1 (repeat unit),302.00 °C
17,*C(=O)c1ccc2c(c1)C(=O)N(c1ccc(CP(=O)(OCCCl)OCCCl)c(N3C(=O)c4ccc(*)cc4C3=O)c1)C2=O (repeat unit),261.00 °C
18,*CCCCCCCCCCCCCCNC(=O)CCc1ccc(CCC(=O)N*)cc1 (repeat unit),85.00 °C
19,*c1cccc(P(=O)(c2ccccc2)c2cccc(N3C(=O)c4ccc(Oc5ccc6c(c5)C(=O)N(*)C6=O)cc4C3=O)c2)c1 (repeat unit),251.00 °C
20,*CC#CCOC(=O)CCCCCCCCC(=O)O* (repeat unit),-26.50 °C
21,*CC(CC(*)(C#N)C#N)c1ccc(Cl)cc1 (repeat unit),180.00 °C
22,*C(F)(F)C1(*)OC(F)(F)C(F)(F)O1 (repeat unit),108.00 °C
23,*CCOCCOC(=O)C(CCC)C(=O)O* (repeat unit),-38.00 °C
24,*CCCCCCOC(=O)C(=O)O* (repeat unit),66.50 °C
25,*c1ccc(Oc2ccccc2Oc2ccc(N3C(=O)c4ccc(S(=O)(=O)c5ccc6c(c5)C(=O)N(*)C6=O)cc4C3=O)cc2C(F)(F)F)c(C(F)(F)F)c1 (repeat unit),255.00 °C
26,*c1cccc(C(=O)Nc2ccc(Oc3ccc(S(=O)(=O)c4ccc(Oc5ccc(NC(=O)c6cccc(N7C(=O)c8ccc(-c9ccc%10c(c9)C(=O)N(*)C%10=O)cc8C7=O)c6)cc5)cc4)cc3)cc2)c1 (repeat unit),258.00 °C
27,*C(=O)Nc1ccc(Sc2ccc(NC(=O)c3ccc4c(c3)C(=O)N(c3ccc(Oc5ccc(C6(c7ccc(Oc8ccc(N9C(=O)c%10ccc(*)cc%10C9=O)cc8)cc7)NC(=O)c7ccccc76)cc5)cc3)C4=O)cc2)cc1 (repeat unit),312.00 °C

# Next, values leading:
row,glass transition temperature,Compound
1,111.00 °C,*Oc1c(-c2ccccc2)cc(Cc2cc(-c3ccccc3)c(OC(=O)CCCCCC(*)=O)c(-c3ccccc3)c2)cc1-c1ccccc1 (repeat unit)
2,195.00 °C,*C(=O)c1ccc2c(c1)C(=O)N(c1cc(OCCCCCCCC)cc(N3C(=O)c4ccc(*)cc4C3=O)c1)C2=O (repeat unit)
3,140.00 °C,*CC(O)COc1ccc(C2CCCC(CC)(c3ccc(O*)cc3)C2)cc1 (repeat unit)
4,275.00 °C,*Oc1ccc(C(c2ccc(Oc3ccc(C(=O)c4c(C(=O)c5ccc(*)cc5)c(-c5ccccc5)c(-c5ccc6ccccc6c5)c(-c5ccc6ccccc6c5)c4-c4ccccc4)cc3)cc2)(C(F)(F)F)C(F)(F)F)cc1 (repeat unit)
5,55.70 °C,*/C=C/c1ccc(/C=C/[Si](C)(CCC(F)(F)F)c2ccc([Si](*)(C)CCC(F)(F)F)cc2)cc1 (repeat unit)
6,242.00 °C,*c1ccc2c(c1)C(=O)N(c1ccc(Oc3ccc(C(=O)c4cccc(N5C(=O)c6ccc(C(*)(C(F)(F)F)C(F)(F)F)cc6C5=O)c4)cc3)cc1)C2=O (repeat unit)
7,7.00 °C,*O[Si](*)(C)CCCCCn1c2ccccc2c2ccccc21 (repeat unit)
8,259.50 °C,*C(=O)c1cccc(C(=O)c2ccc3c(c2)C(=O)N(c2cccc(N4C(=O)c5ccc(*)cc5C4=O)c2)C3=O)c1 (repeat unit)
9,129.00 °C,*C(=O)OCCCCCOC(=O)c1ccc(NC(=O)c2ccc(N3C(=O)c4ccc(*)cc4C3=O)cc2)cc1 (repeat unit)
10,-3.00 °C,*CC(*)c1ccc(OCCOCCOC(C)=O)cc1 (repeat unit)
11,176.00 °C,*Oc1ccc(C(c2ccc(OC(*)=O)cc2)(C(F)(F)F)C(F)(F)F)cc1 (repeat unit)
12,145.00 °C,*c1ccc(Oc2ccc(N3C(=O)C(C)C(SCCOCCSC4C(=O)N(c5ccc(Oc6ccc(N7C(=O)CC(C)(SCCOCCSC8(C)CC(=O)N(*)C8=O)C7=O)cc6)cc5)C(=O)C4C)C3=O)cc2)cc1 (repeat unit)
13,105.00 °C,*Oc1ccc(N(c2ccc(OCCCCCC)cc2)c2ccc(-c3ccc(N(c4ccc(*)cc4)c4ccc(OCCCCCC)cc4)cc3)cc2)cc1 (repeat unit)
14,170.00 °C,*Oc1ccc(Oc2ccc(C(=O)c3ccc(-c4ccc(C(=O)c5ccc(*)cc5)cc4)cc3)cc2)cc1-c1cccc(C)c1 (repeat unit)
15,299.00 °C,*C(=O)Nc1ccc(Oc2ccc(-c3ccc(Oc4ccc(NC(=O)c5ccc6c(c5)C(=O)N(c5ccc(C)c(N7C(=O)c8ccc(*)cc8C7=O)c5)C6=O)cc4)cc3)cc2)cc1 (repeat unit)
16,34.00 °C,*CC(*)(C)C(=O)OCCCCCCCCOc1ccc2cc(C(=O)Oc3ccccc3)ccc2c1 (repeat unit)
17,304.00 °C,*Oc1cccc(C(=O)Nc2ccc(S(=O)(=O)c3ccc(NC(=O)c4cccc(Oc5nc(*)nc(Sc6ccccc6)n5)c4)cc3)cc2)c1 (repeat unit)

row,glass transition temperature,Compound
1,264.50 °C,*C(=O)c1cc(C(=O)c2ccc3c(c2)C(=O)N(c2cccc(N4C(=O)c5ccc(*)cc5C4=O)c2)C3=O)cc(C(C)(C)C)c1 (repeat unit)
2,220.00 °C,*C(=O)c1ccc2c(c1)C(=O)N(c1ccc(Oc3ccc(C(c4ccc(Oc5ccc(N6C(=O)c7ccc(*)cc7C6=O)cc5C(F)(F)F)cc4)(C(F)(F)F)C(F)(F)F)cc3)c(C(F)(F)F)c1)C2=O (repeat unit)
3,231.00 °C,*Nc1ccc(-c2ccc(Nc3ccc4c(c3)c3cc(*)ccc3n4CC(CC)CCCC)cc2)cc1 (repeat unit)
4,241.00 °C,*c1nnc(-c2ccc(Oc3ccc(/C=C/c4ccc(Oc5ccc(*)c6ccccc56)cc4)c4ccccc34)c3ccccc23)o1 (repeat unit)
5,140.50 °C,*Oc1ccc(C(C)(C)c2ccc(OC(*)=S)cc2)cc1 (repeat unit)
6,13.00 °C,*CC(*)OCCCCCCCOc1ccc(-c2ccc(C#N)cc2)cc1 (repeat unit)
7,291.00 °C,*c1cc(C(=O)NCCCC)cc(N2C(=O)c3ccc(-c4ccc5c(c4)C(=O)N(*)C5=O)cc3C2=O)c1 (repeat unit)
8,286.00 °C,*c1ccc(Oc2cccc(N3C(=O)c4ccc(-c5cccc6c5C(=O)N(*)C6=O)cc4C3=O)c2)cc1 (repeat unit)
9,260.00 °C,*c1ccc(Oc2ccc(S(=O)(=O)c3ccc(Oc4ccc(-c5cc(*)[nH]n5)cc4)cc3)cc2)cc1 (repeat unit)
10,29.00 °C,*CC(*)(C)C(=O)OCCCCCCCCCCOc1ccc(OC(=O)c2ccc(OC)c(Br)c2)cc1 (repeat unit)
11,19.00 °C,*CC(O)COC(=O)CCCCC(=O)OCC(O)COc1ccc(O*)cc1 (repeat unit)
12,224.00 °C,*c1ccc(Oc2cccc(Oc3ccc(N4C(=O)c5cccc(Oc6ccc(-c7ccc(Oc8cccc9c8C(=O)N(*)C9=O)cc7)cc6)c5C4=O)cc3)c2)cc1 (repeat unit)
13,295.00 °C,*Nc1ccc(NC(=O)c2ccc(C(*)=O)cc2)cc1 (repeat unit)
14,250.00 °C,*Oc1ccc(C(C)(C)c2ccc(Oc3ccc(C(=O)Nc4ccc(-c5ccc(NC(=O)c6ccc(*)cc6)cc5C(F)(F)F)c(C(F)(F)F)c4)cc3)cc2)cc1 (repeat unit)
15,222.00 °C,*c1ccc(Oc2cc3ccccc3cc2Oc2ccc(N3C(=O)c4ccc(Oc5cc6ccccc6cc5Oc5ccc6c(c5)C(=O)N(*)C6=O)cc4C3=O)cc2)cc1 (repeat unit)
16,220.00 °C,*c1ccc(Oc2ccc(-c3ccc(Oc4ccc(N5C(=O)c6ccc(Oc7ccc(-c8ccc(Oc9ccc%10c(c9)C(=O)N(*)C%10=O)cc8)cc7)cc6C5=O)cc4)cc3)cc2)cc1 (repeat unit)
